Reference: the supplement of paper PMC13380429

Assays:
Settings in all cases: 72 h
U2OS [1] = test: relative viability EC50 (midpoint between 100% and the lowest measured viability); higher = less toxic
Calu-3 [2] = test: as above
Caco-2 [3] = test: as above
Vero E6 [4] = test: as above
HepG2 [5] = test: as above
U2OS [6] = test: drug sensitivity score (DSS) for viability; higher = more toxic; extreme values may be limits of the assay
Calu-3 [7] = test: as above
Caco-2 [8] = test: as above
Vero E6 [9] = test: as above
HepG2 [10] = test: as above
U2OS [11] = test: cell viability relative to DMSO; higher = less toxic
Calu-3 [12] = test: as above
Caco-2 [13] = test: as above
Vero E6 [14] = test: as above
HepG2 [15] = test: as above

Structure (SMILES)	relative viability EC50 (U2OS [1]) [µM]	relative viability EC50 (Calu-3 [2]) [µM]	relative viability EC50 (Caco-2 [3]) [µM]	relative viability EC50 (Vero E6 [4]) [µM]	relative viability EC50 (HepG2 [5]) [µM]	drug sensitivity score (U2OS [6])	drug sensitivity score (Calu-3 [7])	drug sensitivity score (Caco-2 [8])	drug sensitivity score (Vero E6 [9])	drug sensitivity score (HepG2 [10])	cell viability (U2OS [11]; 1 nM) [%]	cell viability (U2OS [11]; 10 nM) [%]	cell viability (U2OS [11]; 100 nM) [%]	cell viability (U2OS [11]; 1000 nM) [%]	cell viability (U2OS [11]; 10000 nM) [%]	cell viability (Calu-3 [12]; 1 nM) [%]	cell viability (Calu-3 [12]; 10 nM) [%]	cell viability (Calu-3 [12]; 100 nM) [%]	cell viability (Calu-3 [12]; 1000 nM) [%]	cell viability (Calu-3 [12]; 10000 nM) [%]	cell viability (Caco-2 [13]; 1 nM) [%]	cell viability (Caco-2 [13]; 10 nM) [%]	cell viability (Caco-2 [13]; 100 nM) [%]	cell viability (Caco-2 [13]; 1000 nM) [%]	cell viability (Caco-2 [13]; 10000 nM) [%]	cell viability (Vero E6 [14]; 1 nM) [%]	cell viability (Vero E6 [14]; 10 nM) [%]	cell viability (Vero E6 [14]; 100 nM) [%]	cell viability (Vero E6 [14]; 1000 nM) [%]	cell viability (Vero E6 [14]; 10000 nM) [%]	cell viability (HepG2 [15]; 1 nM) [%]	cell viability (HepG2 [15]; 10 nM) [%]	cell viability (HepG2 [15]; 100 nM) [%]	cell viability (HepG2 [15]; 1000 nM) [%]	cell viability (HepG2 [15]; 10000 nM) [%]
c1ccc(-c2ccc(CNc3nc(-c4ccccn4)nnc3-c3ccccc3)cc2)cc1 [ML228]	0.685	0.818	0.692	0.339	0.484	12.8	10.7	11.2	16.9	12.5	100	99.1	94.3	38.8	3.6	96	102	101	48.6	17.5	104	98.2	89.3	49.5	13.6	93.1	92.3	97	9.5	4.5	91.4	104	103	31.4	21
CC(O)COC[C@H]1O[C@@H]2O[C@H]3[C@H](O)[C@@H](O)[C@@H](O[C@H]4[C@H](O)[C@@H](O)[C@@H](O[C@H]5[C@H](O)[C@@H](O)[C@@H](O[C@H]6[C@H](O)[C@@H](O)[C@@H](O[C@H]7[C@H](O)[C@@H](O)[C@@H](O[C@H]8[C@H](O)[C@@H](O)[C@@H](O[C@H]1[C@H](O)[C@H]2O)O[C@@H]8COCC(C)O)O[C@@H]7COCC(C)O)O[C@@H]6COCC(C)O)O[C@@H]5COCC(C)O)O[C@@H]4COCC(C)O)O[C@@H]3COCC(C)O (stereo partly drawn) [hydroxypropyl-beta-cyclodextrin]	> 10	> 10	> 10	> 10	> 10	0	0	0	0	0	97.5	98.5	104	98.2	98.4	100	91.5	94.8	98.8	100	92.3	97.1	103	100	95.7	104	96.1	102	101	103	98.6	97.5	98.3	95.9	98.2
C[C@H](NC[C@H](O)CP(=O)(O)Cc1ccccc1)c1ccc(Cl)c(Cl)c1	> 10	> 10	> 10	> 10	> 10	0	0	0	0	0	96.5	101	94.6	97.9	94.3	102	107	95.3	100	106	104	100	95.9	99.5	89.8	99.4	96.8	98.1	94.8	98.1	96.9	92.4	94.8	80.1	95
CC(C)=CCC[C@](C)(O[C@@H]1O[C@H](CO)[C@@H](O)[C@H](O)[C@H]1O)[C@H]1CC[C@]2(C)[C@@H]1[C@H](O)C[C@@H]1[C@@]3(C)CC[C@H](O)C(C)(C)[C@@H]3CC[C@]12C [ginsenoside-C-K]	> 10	> 10	> 10	> 10	> 10	0	0	0	0	0.7	99.4	94.7	99.7	97.5	99.3	89.3	97.3	98.9	101	99.4	91.7	104	94.5	96.2	102	109	99.7	103	98.4	98.1	108	111	106	92.7	85.9
C[C@@H]1NC(=O)[C@@H](N)CNC(=O)[C@H](C2CCNC(=N)N2)NC(=O)/C(=C/NC(N)=O)NC(=O)[C@H](CNC(=O)CC(N)CCCN)NC1=O.N=C1NCC[C@H]([C@@H]2NC(=O)/C(=C/NC(N)=O)NC(=O)[C@H](CNC(=O)C[C@@H](N)CCCN)NC(=O)[C@H](CO)NC(=O)[C@@H](N)CNC2=O)N1 [capreomycin]	> 10	> 10	> 10	> 10	> 10	0	0	0	0	0	103	100	102	96	106	104	100	105	95.3	108	96.2	94.8	98	95	99.3	98.8	105	102	94.1	94.8	94.4	102	105	108	99.1
CCCCC1(COC(=O)CCC(=O)O)C(=O)N(c2ccccc2)N(c2ccccc2)C1=O [suxibuzone]	> 10	> 10	> 10	> 10	> 10	0	0	0.2	0	0	96.4	101	96.5	102	95.5	104	101	95.2	99.2	95.6	87.1	104	94	91.8	84.1	110	103	103	92.4	102	122	99.5	102	103	94.6
NCCCC[C@H](N)C(=O)O [L-lysine]	> 10	> 10	> 10	> 10	> 10	0	0	0	0	0	103	96.7	101	97.5	99.5	92.7	102	106	97.7	105	110	102	96.8	86	106	108	106	99.6	98.8	104	111	102	103	93.2	114
NC1=NCC2c3ccccc3Cc3ccccc3N12 (stereo not given) [epinastine]	> 10	> 10	> 10	> 10	> 10	0	0	0	0	0	97	102	91.7	92.8	98.6	99.3	103	98.2	98	92	91.6	87.4	95	98.9	93.3	98.6	105	99.7	96	99.5	97.3	102	105	99.1	102
CN1CCN(c2cc3c(cc2F)c(=O)c(C(=O)O)cn3-c2ccc(F)cc2)CC1 [difloxacin]	> 10	> 10	> 10	> 10	> 10	0	0	0	0	0	92	95.4	98.9	99.1	104	105	90.1	95.2	98.6	108	92.5	95.1	102	94.7	91.1	109	101	96.7	106	99.1	93.6	110	105	103	93.7
CNCCc1ccc(O)c(O)c1 [deoxyepinephrine]	> 10	> 10	> 10	> 10	> 10	0	0	0	0	0	95	97	94.3	101	95.5	94.5	104	95.8	91.6	98.1	95.5	95.8	106	102	89.6	107	99.6	100	101	103	97.5	97.2	108	91.8	96.7
